Values quoted from earlier work in US20040042990A1, “Composition containing oxidation-sensitive hydrophilic active principle and maleic anhydride copolymer, and use thereof” (L'OREAL, Paris, France, priority 2002, published 2004).

Test system: reconstructed skin

Compound: O=C1O[C@H]([C@@H](O)CO)C([O-])=C1OP(=O)([O-])[O-].O=C1O[C@H]([C@@H](O)CO)C([O-])=C1OP(=O)([O-])[O-].[Mg+2].[Mg+2].[Mg+2] [magnesium ascorbyl phosphate]
- number of fibroblasts in the lattice (reconstructed skin culture medium): significant increase
- synthesis of proteins of the extracellular matrix (collagens IV and VII, laminin) (reconstructed skin, in particular at the dermoepidermal junction): significant stimulation
